Molecular target: recombinant active human PAI-1 (Homo sapiens, UniProt P05121)
Experiment: Inhibition of the activity of PAI-1 in vitro (fibrin clot breakdown, turbidity)
Format: biochemical
Details: absorbance two hours after start of fibrin formation, 50 mM phosphate buffer pH 7.4, tissue plasminogen activator, fibrinogen, thrombin, read-out: IC50 (concentration of product that inhibits PAI-1 activity by 50%)
Method: Inhibition of the activity of PAI-1 was effected in vitro in microplate wells in which the formation and then breakdown of a fibrin clot is monitored continuously by measurement of its turbidity using a spectrophotometer. To do so, using, as diluent, a 50 mM phosphate buffer pH 7.4 containing 0.05% of bovine serum albumin, […] of the inhibitor is placed in the presence of 50 μl of a 2 nM solution of recombinant active human PAI-1 for 5 minutes at ambient temperature. 50 μl of a 0.42 nM solution of tissue plasminogen activator, 50 μl of an 800 nM solution of human plasminogen and 50 μl of a 2 g/liter solution of fibrinogen are then added and the fibrin formation is triggered by the addition of 50 μl of 14 nM purified human thrombin. In the absence of the product, inhibition of breakdown two hours after the start of fibrin formation is measured by the absorbance of the clot and represents 100% of the PAI-1 activity. In the absence of the product and of PAI-1, breakdown is measured by the absorbance of the broken-down clot and represents 0% of the PAI-1 activity. The concentration of product that inhibits PAI-1 activity by 50% is determined by measuring the absorbance of the clot two hours after fibrin formation in the presence of PAI-1 and of an increasing concentration of the product.

recombinant active human PAI-1, sequence (P05121 24-402): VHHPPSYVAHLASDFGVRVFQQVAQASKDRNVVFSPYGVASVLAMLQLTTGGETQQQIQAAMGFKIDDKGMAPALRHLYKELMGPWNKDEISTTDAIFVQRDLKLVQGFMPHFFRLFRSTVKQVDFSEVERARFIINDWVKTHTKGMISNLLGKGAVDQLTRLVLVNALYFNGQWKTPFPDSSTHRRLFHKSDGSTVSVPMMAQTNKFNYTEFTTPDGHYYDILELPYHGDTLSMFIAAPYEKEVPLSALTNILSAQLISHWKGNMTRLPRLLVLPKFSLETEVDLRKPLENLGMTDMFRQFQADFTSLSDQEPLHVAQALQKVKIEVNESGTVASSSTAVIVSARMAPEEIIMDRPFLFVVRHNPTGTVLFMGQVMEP

Compared with O=C(O)/C(=C/c1sc2cc(OCc3ccc(-c4ccccc4)cc3)c(OCc3ccc(-c4ccccc4)cc3)cc2c1Oc1ccc(Cl)cc1)c1ccncc1 [Example 2, (E)-3-[5,6-Bis-([1,1'-biphenyl]-4-ylmethoxy)-3-(4-chlorophenoxy)-benzo[b]thiophen-2-yl]-2-(4-pyridyl)2-propenoic acid], O=C(O)/C(=C/c1sc2cc(OCc3ccc(-c4ccccc4)cc3)c(OCc3ccc(-c4ccccc4)cc3)cc2c1Oc1ccccc1)c1ccncc1 [Example 26, (E)-3-[5,6-Bis([1,1'-biphenyl]-4-ylmethoxy)-3-phenoxy-benzo[b]thiophen-2-yl]-2-(4-pyridyl)-2-propenoic acid] is 2.2-fold lower in IC50: 130 nM for the first, 60 nM for the second. The second is the more potent here.

In the case of O=C(O)/C(=C/c1sc2cc(OCc3ccc(-c4ccccc4)cc3)c(OCc3ccc(-c4ccccc4)cc3)cc2c1Oc1cccnc1)c1ccncc1 [Example 10], the IC50 is reported as 530 nM.

Reference: patent publication US6302837A, “Benzothiophene, benzofuran and indole compounds” (Adir et Compagnie, priority 1999, dated 2001)
